Source: US10689376B2, “Substituted-3H-imidazo [4,5-c] pyridine and 1H-pyrrolo[2,3-c]pyridine series of novel ectonucleotide pyrophosphatase/phosphodiesterase-1 (ENPP1) and stimulator for interferon genes (STING) modulators as cancer immunotherapeutics” (Stingray Therapeutics, Inc., priority 2017, dated 2020)

What follows are molecules tested against Recombinant Human ENPP-1 Protein (Homo sapiens (Human), UniProt P22413) (assay: ENPP1 Inhibition Assay). Details: substrate thymidine 5′-monophosphate p-nitrophenol ester, absorbance at 405 nm.
Assay type: biochemical
Method: 1. ENPP1 Inhibition Assay
Materials: • Assay Buffer: 1 mM CaCl2, 0.2 mM ZnCl2, 50 mM Tris, pH 9.0 • Substrate: 8 mM Thymidine 5′-monophosphate p-nitrophenol ester sodium salt (Sigma Cat # T4510) • Enzyme: 5 ng/μL Recombinant Human ENPP-1 Protein (R&D Cat #6136-EN-010) DMSO • 96-well clear assay plates
An eight point serial dilution of drugs was prepared in 10× in assay buffer with the final assay concentrations starting at 10 μM, 3 μM, 1 μM, 0.3 μM . . . 0 μM. A dilution of DMSO was included as a control. The assay plate was set up as follows with each well in duplicate: 81 μL assay buffer+10 μL ENPP1 inhibitor or DMSO+5 μL Substrate+4 μL Enzyme. Both the enzyme and substrate were added to opposite sides of the well to ensure that there was no interaction until all wells had both components. The plate was then centrifuged gently for 10 seconds, followed by an incubation at 37° C. for 45 minutes. The reaction was quantified by measuring absorbance at 405 nm using the Envision.
IC50 values are determined using GraphPad Prism 5 software. The data were entered as an X-Y plot into the software as percent inhibition for each concentration of the drug. The concentration values of the drug were log transformed and the nonlinear regression was carried out using the “sigmoidal dose-response (variable slope)” option within the GraphPad software to model the data and calculate IC50 values. The IC50 values reported are the concentration of drug at which 50% inhibition was reached.

Chain of Recombinant Human ENPP-1 Protein (P22413 whole entry): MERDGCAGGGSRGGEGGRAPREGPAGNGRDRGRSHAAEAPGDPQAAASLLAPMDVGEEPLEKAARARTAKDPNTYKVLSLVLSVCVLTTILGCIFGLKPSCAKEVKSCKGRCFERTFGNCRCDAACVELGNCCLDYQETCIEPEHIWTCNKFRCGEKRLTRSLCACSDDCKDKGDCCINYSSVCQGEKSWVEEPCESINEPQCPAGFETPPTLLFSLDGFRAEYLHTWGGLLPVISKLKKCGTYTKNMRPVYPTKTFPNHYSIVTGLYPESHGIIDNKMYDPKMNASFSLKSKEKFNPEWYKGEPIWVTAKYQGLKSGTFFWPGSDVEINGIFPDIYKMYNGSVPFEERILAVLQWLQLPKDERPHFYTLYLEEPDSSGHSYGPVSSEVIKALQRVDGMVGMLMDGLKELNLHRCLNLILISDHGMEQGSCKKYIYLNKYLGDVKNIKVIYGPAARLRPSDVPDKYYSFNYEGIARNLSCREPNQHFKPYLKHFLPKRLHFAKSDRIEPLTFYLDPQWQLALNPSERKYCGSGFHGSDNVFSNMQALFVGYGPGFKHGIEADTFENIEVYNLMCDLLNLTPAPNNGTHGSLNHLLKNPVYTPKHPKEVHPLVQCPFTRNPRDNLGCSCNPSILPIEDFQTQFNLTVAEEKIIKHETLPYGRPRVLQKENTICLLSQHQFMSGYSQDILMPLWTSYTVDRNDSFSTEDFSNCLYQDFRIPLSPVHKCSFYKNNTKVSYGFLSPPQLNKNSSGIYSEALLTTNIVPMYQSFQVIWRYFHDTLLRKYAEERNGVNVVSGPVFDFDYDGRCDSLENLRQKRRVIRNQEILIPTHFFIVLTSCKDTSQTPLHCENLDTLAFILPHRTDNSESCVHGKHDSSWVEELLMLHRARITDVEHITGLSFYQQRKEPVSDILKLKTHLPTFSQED

SMILES	IC50
COc1ccc(NC(=O)CSc2nc3cc(Cl)ncc3[nH]2)cc1OC [Compound 3, 2-((6-Chloro-3H-imidazo[4,5-c]pyridin-2-yl)thio)-N-(3,4-dimethoxyphenyl)acetamide]	0.58 µM
COc1ccc(NC(=O)C(C)Sc2nc3cnc(Cl)cc3[nH]2)cc1OC (centres unmarked) [Compound 14, 2-((6-Chloro-1H-imidazo[4,5-c]pyridin-2-yl)thio)-N-(3,4-dimethoxyphenyl)propanamide]	3.52 µM
O=C(CSc1nc2cnc(Cl)cc2[nH]1)Nc1cccc(O)c1 [Compound 25, 2-((6-Chloro-1H-imidazo[4,5-c]pyridin-2-yl)thio)-N-(3-hydroxyphenyl)acetamide]	7.93 µM
COc1ccc(NC(=O)CSc2nc3cnc(Cl)cc3[nH]2)cc1F [Compound 27, 2-((6-Chloro-1H-imidazo[4,5-c]pyridin-2-yl)thio)-N-(3-fluoro-4-methoxyphenyl)acetamide]	0.4 µM
COc1cc(NC(=O)CSc2nc3cc(Cl)ncc3[nH]2)ccc1OC(F)F [Compound 29, 2-((6-Chloro-1H-imidazo[4,5-c]pyridin-2-yl)thio)-N-(4-(difluoromethoxy)-3-methoxyphenyl)acetamide]	1.16 µM
O=C(CSc1nc2cnc(Cl)cc2[nH]1)Nc1ccc(O)cc1 [Compound 33, 2-((6-chloro-1H-imidazo[4,5-c]pyridin-2-yl)thio)-N-(4-hydroxyphenyl)acetamide]	7.92 µM
COc1ccc(NC(=O)CSc2nc3cnc(Cl)cc3[nH]2)cc1OC(F)(F)F [Compound 35, 2-((6-chloro-1H-imidazo[4,5-c]pyridin-2-yl)thio)-N-(4-methoxy-3-(trifluoromethoxy)phenyl)acetamide]	40.7 µM
O=C(CSc1nc2cc(Cl)ncc2[nH]1)Nc1ccc(OC(F)F)cc1 [Compound 40, 2-((6-Chloro-3H-imidazo[4,5-c]pyridin-2-yl)thio)-N-(4-(difluoromethoxy)phenyl)acetamide]	33.6 µM
COc1ccc(NC(=O)C(C)Sc2nc3cnc(C(F)(F)F)cc3[nH]2)cc1O (centres unmarked) [Compound 42, N-(3-Hydroxy-4-methoxyphenyl)-2-((6-(trifluoromethyl)-3H-imidazo[4,5-c]pyridin-2-yl)thio)propanamide]	11.3 µM
COc1c(F)cc(NC(=O)CSc2nc3cnc(C(F)(F)F)cc3[nH]2)cc1F [Compound 44, N-(3,5-Difluoro-4-methoxyphenyl)-2-((6-(trifluoromethyl)-3H-imidazo[4,5-c]pyridin-2-yl)thio)acetamide]	10.2 µM
COc1ccc(NC(=O)CSc2nc3cnc(Cl)c(C)c3[nH]2)cc1O [Compound 49, 2-((6-Chloro-7-methyl-1H-imidazo[4,5-c]pyridin-2-yl)thio)-N-(3-hydroxy-4-methoxyphenyl)acetamide]	0.667 µM
COc1ccc(NC(=O)CSc2nc3cnc(Cl)c(C)c3[nH]2)cc1F [Compound 50, 2-((6-Chloro-7-methyl-1H-imidazo[4,5-c]pyridin-2-yl)thio)-N-(3-fluoro-4-methoxyphenyl)acetamide]	5.63 µM
Cc1c(Cl)ncc2nc(SCC(=O)Nc3ccc(F)c(O)c3)[nH]c12 [Compound 51, 2-((6-Chloro-7-methyl-1H-imidazo[4,5-c]pyridin-2-yl)thio)-N-(4-fluoro-3-hydroxyphenyl)acetamide]	1.27 µM
COc1ccc(NC(=O)CSc2nc3cnc(Cl)c(C)c3[nH]2)cc1OC [Compound 52, 2-((6-Chloro-7-methyl-1H-imidazo[4,5-c]pyridin-2-yl)thio)-N-(3,4-dimethoxyphenyl)acetamide]	1.14 µM
COc1cc2nc(NC(=O)CSc3nc4cc(Cl)ncc4[nH]3)sc2cc1OC [Compound 54, 2-((6-Chloro-3H-imidazo[4,5-c]pyridin-2-yl)thio)-N-(5,6-dimethoxybenzo[d]thiazol-2-yl)acetamide]	5.73 µM
O=C(CSc1nc2cc(C(F)(F)F)ncc2[nH]1)Nc1ccc(OC(F)(F)F)c(O)c1 [Compound 61, N-(3-Hydroxy-4-(trifluoromethoxy)phenyl)-2-((6-(trifluoromethyl)-3H-imidazo[4,5-c]pyridin-2-yl)thio)acetamide]	22.6 µM
O=C(CSc1nc2cc(Cl)ncc2[nH]1)Nc1nc2ccccc2s1 [Compound 62, N-(Benzo[d]thiazol-2-yl)-2-((6-chloro-3H-imidazo[4,5-c]pyridin-2-yl)thio)acetamide]	10.9 µM
COc1ccc(NC(=O)CSc2nc3cc(C#N)ncc3[nH]2)cc1O [Compound 67, 2-((6-Cyano-3H-imidazo[4,5-c]pyridin-2-yl)thio)-N-(3-hydroxy-4-methoxyphenyl)acetamide]	0.179 µM
N#Cc1cc2nc(SCC(=O)Nc3ccc(F)c(O)c3)[nH]c2cn1 [Compound 69, 2-((6-Cyano-3H-imidazo[4,5-c]pyridin-2-yl)thio)-N-(4-fluoro-3-hydroxyphenyl)acetamide]	0.216 µM
COc1ccc(NC(=O)CSc2nc3cc(Cl)ncc3[nH]2)cn1 [Compound 72, 2-((6-chloro-3H-imidazo[4,5-c]pyridin-2-yl)thio)-N-(6-methoxypyridin-3-yl)acetamide]	3.29 µM
COc1ccc(NC(=O)CSc2nc3c(C)c(C#N)ncc3[nH]2)cc1OC [Compound 77, 2-((6-Cyano-7-methyl-3H-imidazo[4,5-c]pyridin-2-yl)thio)-N-(3,4-dimethoxyphenyl)acetamide]	0.265 µM
Cc1c(C#N)ncc2[nH]c(SCC(=O)Nc3ccc(F)c(O)c3)nc12 [Compound 79, 2-((6-Cyano-7-methyl-3H-imidazo[4,5-c]pyridin-2-yl)thio)-N-(4-fluoro-3-hydroxyphenyl)acetamide]	6.52 µM
COc1ccc(NC(=O)CSc2nc3cc(Cl)ncc3[nH]2)cc1OCC(F)(F)F [Compound 89]	11.3 µM
COc1ccc(NC(=O)CSc2nc3c(C)c(C#N)ncc3[nH]2)cc1F [Compound 93, 2-((6-Cyano-7-methyl-3H-imidazo[4,5-c]pyridin-2-yl)thio)-N-(3-fluoro-4-methoxyphenyl)acetamide]	0.224 µM

The remaining lines, values ahead:

IC50	SMILES
> 50 µM	O=C(CSc1nc2cc(Cl)ncc2[nH]1)Nc1ccc2c(c1)OCO2 [Compound 7, N-(benzo[d][1,3]dioxol-5-yl)-2-((6-chloro-1H-imidazo[4,5-c]pyridin-2-yl)thio)acetamide]
4.46 µM	COc1ccc(NC(=O)CSc2nc3c(C)cncc3[nH]2)cc1OC [Compound 9, N-(3,4-dimethoxyphenyl)-2-((7-methyl-1H-imidazo[4,5-c]pyridin-2-yl)thio)acetamide]
50 µM	Cc1cncc2[nH]c(SCC(=O)Nc3ccc4c(c3)OCO4)nc12 [Compound 10, N-(benzo[d][1,3]dioxol-5-yl)-2-((7-methyl-1H-imidazo[4,5-c]pyridin-2-yl)thio)acetamide]
2.29 µM	COc1ccc(NC(=O)CSc2nc3c(C)cncc3[nH]2)cc1O [Compound 16, N-(3-hydroxy-4-methoxyphenyl)-2-((7-methyl-1H-imidazo[4,5-c]pyridin-2-yl)thio)acetamide]
8.37 µM	COc1cc(NC(=O)CSc2nc3c(C)cncc3[nH]2)ccc1O [Compound 18, N-(4-hydroxy-3-methoxyphenyl)-2-((7-methyl-3H-imidazo[4,5-c]pyridin-2-yl)thio)acetamide]
30.2 µM	COc1ccc(NC(=O)CS(=O)(=O)c2nc3cnc(Cl)cc3[nH]2)cc1F [Compound 70, 2-((6-chloro-1H-imidazo[4,5-c]pyridin-2-yl)sulfonyl)-N-(3-fluoro-4-methoxyphenyl)acetamide]
6.02 µM	COc1ccc(NC(=O)CSc2nc3cc(Cl)ncc3[nH]2)cc1N [Compound 82, N-(3-Amino-4-methoxyphenyl)-2-((6-chloro-3H-imidazo[4,5-c]pyridin-2-yl)thio)acetamide]
4.55 µM	COc1ccc(NC(=O)CSc2nc3cc(Cl)ncc3[nH]2)cc1[N+](=O)[O-] [Compound 83, 2-((6-Chloro-3H-imidazo[4,5-c]pyridin-2-yl)thio)-N-(4-methoxy-3-nitrophenyl)acetamide]
0.266 µM	COc1cnc(NC(=O)CSc2nc3cc(Cl)ncc3[nH]2)cc1OC [Compound 85, 2-((6-chloro-1H-imidazo[4,5-c]pyridin-2-yl)thio)-N-(4,5-dimethoxypyridin-2-yl)acetamide]
1.98 µM	COc1ccc(NC(=O)CSc2nc3cc(Cl)ncc3[nH]2)nc1OC [Compound 87, 2-((6-chloro-1H-imidazo[4,5-c]pyridin-2-yl)thio)-N-(5,6-dimethoxypyridin-2-yl)acetamide]
2.06 µM	COc1nc(NC(=O)CSc2nc3c(C)c(C#N)ncc3[nH]2)ccc1O [Compound 96, 2-((6-cyano-7-methyl-3H-imidazo[4,5-c]pyridin-2-yl)thio)-N-(5-hydroxy-6-methoxypyridin-2-yl)acetamide]
